Structures can show the parent of a compound that is named as a salt. Where two headings read alike, the source gives them in different places.
Experiments:
Assay type in all cases: biochemical
[1] = target: T1, recombinant human DAO (diamine oxidase) (Homo sapiens, UniProt P19801); assay: Activity evaluation on recombinant human DAO (Amplex Red/HRP-coupled assay, 1 mM putrescine substrate); settings: read-out: Inhibitory Activity (IC50, nM) DAO
T1 construct: purchased R&D systems
T1 sequence (P19801 20-751): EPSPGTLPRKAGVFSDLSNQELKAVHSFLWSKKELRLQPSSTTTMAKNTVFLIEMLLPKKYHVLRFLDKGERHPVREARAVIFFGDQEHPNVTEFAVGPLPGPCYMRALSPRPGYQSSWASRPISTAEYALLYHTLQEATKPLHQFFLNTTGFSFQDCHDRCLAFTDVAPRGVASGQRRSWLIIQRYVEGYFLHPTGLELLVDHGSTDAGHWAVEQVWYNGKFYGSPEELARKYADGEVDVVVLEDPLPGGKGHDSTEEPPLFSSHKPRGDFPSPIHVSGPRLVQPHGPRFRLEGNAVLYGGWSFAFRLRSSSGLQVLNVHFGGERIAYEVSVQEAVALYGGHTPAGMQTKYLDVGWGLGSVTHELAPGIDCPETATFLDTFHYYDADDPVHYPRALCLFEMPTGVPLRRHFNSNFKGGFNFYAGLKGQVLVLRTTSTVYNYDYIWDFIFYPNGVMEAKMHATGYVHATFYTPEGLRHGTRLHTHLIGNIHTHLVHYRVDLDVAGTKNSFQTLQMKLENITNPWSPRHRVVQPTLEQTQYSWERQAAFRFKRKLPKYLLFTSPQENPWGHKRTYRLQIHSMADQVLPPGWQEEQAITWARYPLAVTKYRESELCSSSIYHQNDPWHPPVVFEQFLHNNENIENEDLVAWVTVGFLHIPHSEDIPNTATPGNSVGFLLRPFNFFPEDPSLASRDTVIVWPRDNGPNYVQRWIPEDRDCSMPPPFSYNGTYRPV
Summary of the method: (§1)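 Enzyme was preincubated with compounds (8-point 1:3 series, final DMSO <1%) 30 min at 37 °C in 50 mM sodium phosphate pH 7.4, then given 200 uM Amplex Red and 1 U/mL HRP with substrate. H2O2-derived resorufin fluorescence (ex 544/em 590 nm) was followed over 1–2 h; IC50 came from 4-parameter logistic fits of signal-rate inhibition versus DMSO control.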

[2] = target: T2, recombinant human VAP-1 (Homo sapiens, UniProt Q16853); assay: Activity evaluation on recombinant human VAP-1 (Amplex Red/HRP-coupled hydrogen peroxide assay, benzylamine substrate); settings: read-out: Inhibitory Activity (IC50, nM) human VAP-1
T2 construct: purchased R&D systems
T2 sequence (Q16853 1-763): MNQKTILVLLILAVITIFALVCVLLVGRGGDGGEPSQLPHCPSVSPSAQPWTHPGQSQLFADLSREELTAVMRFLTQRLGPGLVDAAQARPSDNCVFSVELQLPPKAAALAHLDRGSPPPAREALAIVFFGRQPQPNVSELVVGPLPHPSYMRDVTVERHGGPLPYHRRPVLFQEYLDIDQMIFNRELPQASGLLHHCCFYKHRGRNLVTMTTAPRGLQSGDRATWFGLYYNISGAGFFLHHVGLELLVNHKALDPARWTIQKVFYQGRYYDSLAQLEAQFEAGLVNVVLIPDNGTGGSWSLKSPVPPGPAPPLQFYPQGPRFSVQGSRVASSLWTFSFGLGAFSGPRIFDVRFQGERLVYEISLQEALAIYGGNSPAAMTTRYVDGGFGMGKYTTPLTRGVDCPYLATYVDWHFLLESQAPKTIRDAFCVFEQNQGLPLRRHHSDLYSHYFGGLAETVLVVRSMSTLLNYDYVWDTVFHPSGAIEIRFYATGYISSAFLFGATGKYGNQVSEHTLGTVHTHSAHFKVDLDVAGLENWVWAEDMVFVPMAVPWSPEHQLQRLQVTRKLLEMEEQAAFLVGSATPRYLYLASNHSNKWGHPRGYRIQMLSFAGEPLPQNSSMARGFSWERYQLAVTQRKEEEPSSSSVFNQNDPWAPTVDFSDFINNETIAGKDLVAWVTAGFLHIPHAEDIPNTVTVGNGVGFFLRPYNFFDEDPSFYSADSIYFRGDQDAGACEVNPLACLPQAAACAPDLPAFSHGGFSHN
Summary of the method: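 Recombinant human VAP-1 in 50 mM sodium phosphate pH 7.4 preincubated 30 min at 37 °C with compound (8-point 1:3 series, <1% DMSO), then 1 mM benzylamine, 200 uM Amplex Red, 1 U/mL HRP added. H2O2-derived resorufin fluorescence (ex 544/em 590) followed 1–2 h; IC50 from four-parameter fit of rate inhibition.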

[3] = target: T3, recombinant human MAO-A (monoamine oxidase-A) (Homo sapiens, UniProt P21397); assay: Activity evaluation on recombinant human MAO-A (Amplex Red/HRP-coupled assay, 0.5 mM tyramine substrate); settings: read-out: Inhibitory Activity (IC50, nM) MAO-A
T3 construct: purchased Sigma-Aldrich
T3 sequence (P21397 1-527): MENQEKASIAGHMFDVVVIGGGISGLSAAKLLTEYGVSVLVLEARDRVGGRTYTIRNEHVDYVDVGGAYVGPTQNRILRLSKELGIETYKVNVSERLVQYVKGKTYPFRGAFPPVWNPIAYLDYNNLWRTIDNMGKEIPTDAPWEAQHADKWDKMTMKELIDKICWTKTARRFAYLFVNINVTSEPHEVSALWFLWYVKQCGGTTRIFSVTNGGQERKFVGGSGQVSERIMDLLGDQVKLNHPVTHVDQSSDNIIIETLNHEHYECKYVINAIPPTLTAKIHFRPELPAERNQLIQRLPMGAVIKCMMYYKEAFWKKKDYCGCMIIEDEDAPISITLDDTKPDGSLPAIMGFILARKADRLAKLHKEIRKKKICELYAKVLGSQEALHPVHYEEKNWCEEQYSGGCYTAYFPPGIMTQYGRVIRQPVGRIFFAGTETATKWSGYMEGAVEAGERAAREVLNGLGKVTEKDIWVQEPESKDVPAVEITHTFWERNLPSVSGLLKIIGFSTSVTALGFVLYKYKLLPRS
Summary of the method: as §1

[4] = target: T4, recombinant human MAO-B (monoamine oxidase-B) (Homo sapiens, UniProt P27338); assay: Activity evaluation on recombinant human MAO-B (Amplex Red/HRP-coupled assay, 1 mM benzylamine substrate); settings: read-out: Inhibitory Activity (IC50, nM) MAO-B
T4 construct: purchased Sigma-Aldrich
T4 sequence (P27338 1-520): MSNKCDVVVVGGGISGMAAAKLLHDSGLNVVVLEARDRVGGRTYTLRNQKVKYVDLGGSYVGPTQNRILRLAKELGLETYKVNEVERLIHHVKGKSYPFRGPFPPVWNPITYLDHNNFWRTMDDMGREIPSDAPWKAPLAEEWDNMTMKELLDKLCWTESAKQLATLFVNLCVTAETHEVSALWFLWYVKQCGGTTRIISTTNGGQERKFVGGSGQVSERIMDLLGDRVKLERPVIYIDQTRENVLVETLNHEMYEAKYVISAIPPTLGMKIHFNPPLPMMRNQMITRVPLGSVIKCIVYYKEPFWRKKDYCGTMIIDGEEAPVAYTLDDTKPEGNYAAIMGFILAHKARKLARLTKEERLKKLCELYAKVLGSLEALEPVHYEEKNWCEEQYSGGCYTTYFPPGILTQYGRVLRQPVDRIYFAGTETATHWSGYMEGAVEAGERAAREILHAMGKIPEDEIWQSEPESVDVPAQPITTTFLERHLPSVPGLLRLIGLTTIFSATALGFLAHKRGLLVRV
Summary of the method: as §1

[5] = recombinant human VAP-1, 30 min preincubation at 37° C., 1 mM benzylamine
[6] = recombinant human VAP-1, benzylamine substrate

Row | SMILES | IC50 ([1]; 1 mM putrescine) | IC50 [2, 5] | IC50 ([3]; 0.5 mM tyramine) | IC50 ([4]; 1 mM benzylamine) | IC50 ([1]; 1 mM putrescine substrate) | IC50 [2, 6] | IC50 ([3]; 0.5 mM tyramine substrate) | IC50 ([4]; 1 mM benzylamine substrate)
1 | NCC(Cn1ncn(-c2cnc(-c3ccc4c(c3)OCO4)cn2)c1=O)=C(F)F [Example 93, 2-[2-(aminomethyl)-3,3-difluoro-allyl]-4-[5-(1,3-benzodioxol-5-yl)pyrazin-2-yl]-1,2,4-triazol-3-one Trifluoroacetate] | 21 nM | 0.3 nM | > 100000 nM | 50 nM | – | – | – | –
2 | Cc1cc(-c2ccc(-n3cnn(CC(CN)=C(F)F)c3=O)cc2F)cc2c1NC(=O)CC2 [Example 29, 6-[4-[1-[2-(aminomethyl)-3,3-difluoro-allyl]-5-oxo-1,2,4-triazol-4-yl]-2-fluoro-phenyl]-8-methyl-3,4-dihydro-1H-quinolin-2-one Trifluoroacetate] | 200 nM | 0.2 nM | > 100000 nM | 150 nM | – | – | – | –
3 | COc1ccc(-c2ccc(Cn3cnn(CC(CN)=C(F)F)c3=O)s2)cn1 [Example 113, 2-[2-(aminomethyl)-3,3-difluoro-allyl]-4-[[5-(6-methoxy-3-pyridyl)-2-thienyl]methyl]-1,2,4-triazol-3-one Trifluoroacetate] | 19000 nM | 0.6 nM | > 100000 nM | 2700 nM | – | – | – | –
4 | Cc1c(-c2ccc(C(F)(F)F)nc2)cccc1-n1cnn(CC(CN)=C(F)F)c1=O [Example 255, 2-[2-(aminomethyl)-3,3-difluoro-allyl]-4-[2-methyl-3-[6-(trifluoromethyl)-3-pyridyl]phenyl]-1,2,4-triazol-3-one Trifluoroacetate] | – | – | – | – | 35000 nM | 2.3 nM | > 100000 nM | > 100000 nM
5 | CCn1cc(-c2cc(F)c(Cn3cnn(CC(CN)=C(F)F)c3=O)s2)cn1 [Example 302, 2-[2-(aminomethyl)-3,3-difluoro-allyl]-4-[[5-(1-ethylpyrazol-4-yl)-3-fluoro-2-thienyl]methyl]-1,2,4-triazol-3-one Trifluoroacetate] | – | – | – | – | 19500 nM | 1.1 nM | > 100000 nM | > 100000 nM
6 | Cc1cc(-c2ccc(N(C)C)nc2)sc1Cn1cnn(CC(CN)=C(F)F)c1=O [Example 157, 2-[2-(aminomethyl)-3,3-difluoro-allyl]-4-[[5-[6-(dimethylamino)-3-pyridyl]-3-methyl-2-thienyl]methyl]-1,2,4-triazol-3-one Trifluoroacetate] | > 100000 nM | 2.3 nM | > 100000 nM | > 100000 nM | – | – | – | –
7 | Cc1cc(-c2cc(-n3cnn(CC(CN)=C(F)F)c3=O)ccn2)cc2c1NC(=O)CC2 [Example 65, 6-[4-[1-[2-(aminomethyl)-3,3-difluoro-allyl]-5-oxo-1,2,4-triazol-4-yl]-2-pyridyl]-8-methyl-3,4-dihydro-1H-quinolin-2-one Trifluoroacetate] | 290 nM | 0.3 nM | > 100000 nM | 12000 nM | – | – | – | –
8 | NCC(Cn1ncn(Cc2ccc(C#Cc3ccc4c(c3)CCC(=O)N4)s2)c1=O)=C(F)F [Example 165, 6-[2-[5-[[1-[2-(aminomethyl)-3,3-difluoro-allyl]-5-oxo-1,2,4-triazol-4-yl]methyl]-2-thienyl]ethynyl]-3,4-dihydro-1H-quinolin-2-one Trifluoroacetate] | > 10000 nM | 0.5 nM | > 100000 nM | 5900 nM | – | – | – | –
9 | CN(C)c1ccc(-c2ccc3cc(Cn4cnn(CC(CN)=C(F)F)c4=O)sc3c2)cn1 [Example 200, 2-[2-(aminomethyl)-3,3-difluoro-allyl]-4-[[6-[6-(dimethylamino)-3-pyridyl]benzothiophen-2-yl]methyl]-1,2,4-triazol-3-one Trifluoroacetate] | – | – | – | – | > 100000 nM | 1.9 nM | > 100000 nM | 740 nM
10 | Cc1cc(-n2cnn(CC(CN)=C(F)F)c2=O)cnc1-c1ccc2c(c1)OCO2 [Example 79, 2-[2-(aminomethyl)-3,3-difluoro-allyl]-4-[6-(1,3-benzodioxol-5-yl)-5-methyl-3-pyridyl]-1,2,4-triazol-3-one Trifluoroacetate] | 200 nM | 0.9 nM | > 100000 nM | 910 nM | – | – | – | –
11 | CCn1cc(-c2cccc(-n3cnn(CC(CN)=C(F)F)c3=O)c2)cn1 [Example 23, 2-[2-(aminomethyl)-3,3-difluoro-allyl]-4-[3-(1-ethylpyrazol-4-yl)phenyl]-1,2,4-triazol-3-one Trifluoroacetate] | 8400 nM | 3.1 nM | > 100000 nM | > 100000 nM | – | – | – | –
12 | NCC(Cn1ncn(-c2cccc(-c3ccc(N4CCOCC4)nc3)n2)c1=O)=C(F)F [Example 215, 2-[2-(aminomethyl)-3,3-difluoro-allyl]-4-[6-(6-morpholino-3-pyridyl)-2-pyridyl]-1,2,4-triazol-3-one Trifluoroacetate] | – | – | – | – | 280 nM | 0.7 nM | > 100000 nM | > 100000 nM

From patent US11168073B2, “3,3-difluoroallylamines or salts thereof and pharmaceutical compositions comprising the same” (YUHAN CORPORATION, priority 2018, dated 2021)
